Values joined by “and” are separate entries in the source; they are usually repeats but may differ in a detail not shown here. Equal values may be shown once. Read-outs that look alike come from different tables or passages of the source. *1 amine or outer side, *2 acyl side, *3 side chain or, on linkers, in order; H or OH if unused. Where a SMILES comes first, the peptide text is derived from it. Bridges are numbered along the chain shown (N, C = ends). [ ]: non-standard residue; d: D form. Ser(Bzl) = O-benzyl-L-serine, O=C([C@H](COCc1ccccc1)N[*:1])[*:2]; Orn = NCCC[C@H](N)C(=O)O
Key:
[1] = Induction of penile erection in male rats; type: in vivo, rat; conditions: for increase in observed spontaneous erections: in words
Protocol: The ability of peptides of the present invention to induce penile erection (PE) in male rats were evaluated with selected peptides. Male Sprague-Dawley rats weighing 250-300 g were kept on a 12 hour on/off light cycle with food and water ad libitum. All behavioral studies were performed between 9 a.m. and 4 p.m. Groups of 6-8 rats were administered peptides at a variety of doses via an IV route. Immediately after treatment, rats were placed into individual polystyrene cages (27 cm long, 16 cm wide, and 25 cm high) for behavioral observation, typically by remote video monitoring. Rats are observed for one hour, and the number of yawns, grooming bouts and PEs are recorded in 10-minute bins.

[2] = target: T1, hMC4-R (Homo sapiens, UniProt P32245); assay: Competitive binding assay using Eu-NDP-α-MSH, MC4-R; conditions: for selectivity for MC4-R (binding against MC1-R, MC3-R and MC4-R): in words
T1 construct: expressed in transfected cells; host or cells: HEK-293 (membrane homogenates)
Protocol: Competitive inhibition binding assays were performed using membrane homogenates prepared from HEK-293 cells that express recombinant hMC1-R, hMC3-R, hMC4-R, or hMC5-R. In the examples that follow, all MC1-R, MC3-R, MC4-R and MC5-R values are for human recombinant receptors. Assays were performed in 96 well GF/B Millipore multiscreen filtration plates (MAFB NOB10) pre-coated with 0.5% bovine serum albumin (Fraction V). Membrane homogenates were incubated with 0.1 nM [1^125]-NDP-α-MSH (Perkin Elmer) and increasing concentrations of test peptides of the present invention in buffer containing 25 mM HEPES buffer (pH 7.5) with 100 mM NaCl, 2 mM CaCl2, 2 mM MgCl2, 0.3 mM 1,10-phenanthroline, and 0.1% bovine serum albumin. After incubation for 90 minutes at 37° C., the assay mixture was filtered and the membranes washed with 1 mL of cold 1×PBS wash buffer per well. 35 μL of scintillation cocktail was added to each well and the plates counted on a Microbeta counter for 1 minute per well. Non-specific binding was measured by inhibition of binding of [I^125]-NDP-α-MSH in the presence of 1 μM NDP-α-MSH. Maximal specific binding (100%) was defined as the difference in radioactivity (cpm) bound to cell membranes in the absence and presence of 1 μM NDP-α-MSH. Radioactivity (cpm) obtained in the presence of test compounds was normalized with respect to 100% specific binding to determine the percent inhibition of [I^125]-NDP-α-MSH binding. Each assay was conducted in duplicate and actual mean values are described, with results less than 0% reported as 0%. Ki values for test peptides of the present invention were determined using Graph-Pad Prism® curve-fitting software.
Alternatively, a competitive inhibition binding assay was performed employing Eu-NDP-α-MSH (PerkinElmer Life Sciences catalog No. AD0225) with determination by time-resolved fluorometry (TRF) of the lanthanide chelate. In comparison studies with [I^125]-NDP-α-MSH, the same values, within experimental error ranges, were obtained for percent inhibition and Ki. Typically competition experiments to determine Ki values were conducted by incubating membrane homogenates prepared from HEK-293 cells that express recombinant hMC4-R with 9 different concentrations of test compounds of interest and 1 nM of Eu-NDP-α-MSH in a solution containing 25 mM HEPES buffer with 100 mM NaCl, 2 mM CaCl2, 2 mM MgCl2, 0.1% BSA, and 0.3 mM 1,10-phenanthroline. After incubation for 90 minutes at 37° C., the reaction was stopped by filtration over AcroWell 96-well filter plates (Pall Life Sciences). The filter plates were washed 4 times with 200 μL of ice-cold phosphate-buffered saline. DELFIA Enhancement solution (PerkinElmer Life Sciences) was added to each well. The plates were incubated on a shaker for 15 minutes and read at 340 nm excitation and 615 nm emission wavelengths. Each assay was conducted in duplicate and mean values were utilized. Ki values were determined by curve-fitting with Graph-Pad Prism® software using a one-site fixed-slope competition binding model.

[3] = Food intake and body weight change in rats; type: in vivo, rat; conditions: for food intake / rate of change in body weight: rat feeding studies, overall finding in words; for decrease in food consumption compared to control: rats
Protocol: Change in food intake and body weight was evaluated for selected peptides administered by intravenous (IV) or subcutaneous injection routes. Male Sprague-Dawley rats were obtained from Hilltop Lab Animals, Inc. (Scottsdale, Pa.) or other vendors. Animals were individually housed in conventional polystyrene hanging cages and maintained on a controlled 12 hour on/off light cycle. Water and pelleted food was provided ad libitum. The rats were dosed IV with vehicle or selected peptides (0.3 to 1.0 mg/kg), or dosed subcutaneously with vehicle or selected peptides (doses up to 30 mg/kg). The changes in body weight and food intake for the 24 hour period after dosing was determined. The changes in body weight and food intake for the 48 hour and 72 hour periods after dosing can also be measured to determine reversal of changes in body weight and food intake effects back to baseline levels.

[4] = target: T1, hMC4-R; assay: Assay for agonist activity (cAMP accumulation in HEK-293 cells expressing hMC4-R); type: cell-based
Protocol: Accumulation of intracellular cAMP was examined as a measure of the ability of the peptides of the present invention to elicit a functional response in HEK-293 cells that express MC4-R. Confluent HEK-293 cells that express recombinant hMC4-R were detached from culture plates by incubation in enzyme-free cell dissociation buffer. Dispersed cells were suspended in Earle's Balanced Salt Solution containing 10 mM HEPES (pH 7.5), 1 mM MgCl2, 1 mM glutamine, 0.5% albumin and 0.3 mM 3-isobutyl-1-methyl-xanthine (IBMX), a phosphodiesterase inhibitor. The cells were plated in 96-well plates at a density of 0.5×10^5 cells per well and pre-incubated for 10 minutes. Cells were exposed for 15 minutes at 37° C. to peptides of the present invention dissolved in DMSO (final DMSO concentration of 1%) at a concentration range of 0.05-5000 nM in a total assay volume of 200 μL. NDP-α-MSH was used as the reference agonist. cAMP levels were determined by an HTRF® cAMP cell-based assay system from Cisbio Bioassays utilizing cryptate-labeled anti-cAMP and d2-labeled cAMP, with plates read on a Perkin-Elmer Victor plate reader at […]. Data analysis was performed by nonlinear regression analysis with Graph-Pad Prism® software. The maximum efficacies of the test peptides of the present invention were compared to that achieved by the reference melanocortin agonist NDP-α-MSH.

[5] = target: T2, human melanocortin-3 receptor (recombinant hMC3-R) (human, UniProt P41968 1-323); assay: competitive binding vs labelled NDP-α-MSH, hMC3-R membranes
T2 construct: whole, on cells; Membrane homogenates of HEK-293 cells expressing the recombinant receptor

[6] = target: human melanocortin-4 receptor (recombinant hMC4-R) (human, UniProt P32245 1-332); assay: cell-based or functional assay
[7] = target: human melanocortin-4 receptor (recombinant hMC4-R) (human) (UniProt P32245); assay: cell-based or functional assay
[8] = competitive binding using Eu-NDP-α-MSH, human recombinant receptor, read-out: MC4-R Ki
[9] = competitive studies using Eu-NDP-α-MSH / NDP-α-MSH, average of several studies, read-out: Ki value at MC4-R

T1 sequence (P32245 whole entry): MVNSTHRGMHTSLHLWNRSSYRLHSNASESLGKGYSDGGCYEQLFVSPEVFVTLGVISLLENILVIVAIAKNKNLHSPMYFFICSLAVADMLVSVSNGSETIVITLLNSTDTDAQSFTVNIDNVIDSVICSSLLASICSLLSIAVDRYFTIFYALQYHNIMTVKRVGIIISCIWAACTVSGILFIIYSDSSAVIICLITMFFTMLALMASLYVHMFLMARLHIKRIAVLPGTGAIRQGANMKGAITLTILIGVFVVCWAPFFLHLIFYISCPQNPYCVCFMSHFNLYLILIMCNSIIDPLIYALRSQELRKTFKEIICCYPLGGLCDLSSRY
Chain of human melanocortin-4 receptor (recombinant hMC4-R) (human) (P32245 whole entry): as above
T2 sequence (P41968 whole entry): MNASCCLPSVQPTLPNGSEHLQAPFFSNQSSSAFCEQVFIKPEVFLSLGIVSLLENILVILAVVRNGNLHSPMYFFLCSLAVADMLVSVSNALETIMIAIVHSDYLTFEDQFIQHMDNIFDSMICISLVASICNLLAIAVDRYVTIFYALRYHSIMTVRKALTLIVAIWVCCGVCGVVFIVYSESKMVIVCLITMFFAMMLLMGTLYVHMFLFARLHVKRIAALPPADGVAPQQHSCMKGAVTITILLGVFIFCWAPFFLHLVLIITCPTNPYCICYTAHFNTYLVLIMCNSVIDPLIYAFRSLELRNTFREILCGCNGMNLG
Chain of human melanocortin-4 receptor (recombinant hMC4-R) (P32245 whole entry): as the sequence (P32245 whole entry) above

CCCC[C@H](NC(C)=O)C(=O)N[C@H]1CC(=O)NCCCC[C@@H](C(=O)O)NC(=O)[C@H](Cc2c[nH]c3ccccc23)NC(=O)[C@H](CCCN=C(N)N)NC(=O)[C@@H](Cc2ccccc2)NC(=O)[C@H](Cc2cnc[nH]2)NC1=O [bremelanotide, Ac-Nle-cyclo(Asp-His-D-Phe-Arg-Trp-Lys)-OH, reference compound]
average spontaneous erections per rat in one hour ([1]; IV, 1 mg/kg): 4.875±0.990 spontaneous erections per rat in one hour and 3.167±0.79 spontaneous erections per rat in one hour
average spontaneous erections per rat in one hour ([1]; positive control, dose not stated in this study): 3.714±0.680 spontaneous erections per rat in one hour

CC(=O)N[C@@H](CCCNC(=N)N)C(=O)N[C@H]1CCCNC(=O)CC[C@@H](C(N)=O)NC(=O)[C@H](Cc2c[nH]c3ccccc23)NC(=O)[C@H](CCCNC(=N)N)NC(=O)[C@@H](Cc2ccccc2)NC(=O)[C@@H]2CCCN2C1=O [Compound 5, Ac-Arg-cyclo(Orn-Pro-D-Phe-Arg-Trp-Glu)-NH2] (Ac-R[Orn]P[dF]RWE-NH2; lactam 2-7)
Ki [2, 8]: 13 nM

CC(=O)N[C@@H](CCCNC(=N)N)C(=O)N[C@H]1CCC(=O)NCCC[C@@H](C(=O)O)NC(=O)[C@H](Cc2c[nH]c3ccccc23)NC(=O)[C@H](CCCNC(=N)N)NC(=O)[C@@H](Cc2ccccc2)NC(=O)[C@H](COCc2ccccc2)NC1=O [Compound 6, Ac-Arg-cyclo(Glu-Ser(Bzl)-D-Phe-Arg-Trp-Orn)-OH]
Ki [2, 8]: 13 nM

CC(=O)N[C@@H](CCCNC(=N)N)C(=O)N[C@H]1CC(=O)NCCCC[C@@H](C(N)=O)NC(=O)[C@H](Cc2c[nH]c3ccccc23)NC(=O)[C@H](CCCNC(=N)N)NC(=O)[C@@H](Cc2ccccc2)NC(=O)[C@@H]2CCCN2C1=O [Compound 3, Ac-Arg-cyclo(Asp-Pro-D-Phe-Arg-Trp-Lys)-NH2]
food intake [3]: reduce food intake
rate of change in body weight [3]: decrease the rate of change in body weight
decrease in food consumption compared to control ([3]; 0.3 mg/kg, 0-2 hour period): statistically significant
decrease in food consumption compared to control ([3]; 0.3 mg/kg, 0-4 hour period): statistically significant
decrease in food consumption compared to control ([3]; 0.3 mg/kg, 0-20 hour period): statistically significant
decrease in food consumption compared to control ([3]; 1 mg/kg, 0-2 hour period): statistically significant
decrease in food consumption compared to control ([3]; 1 mg/kg, 0-4 hour period): statistically significant
decrease in food consumption compared to control ([3]; 1 mg/kg, 0-20 hour period): statistically significant
Ki [2, 9]: 11 nM
selectivity for MC4-R (binding against MC1-R, MC3-R and MC4-R) [2]: highly selective for MC4-R
average spontaneous erections per rat in one hour ([1]; IV, 0.3 mg/kg): 1.143±0.553 spontaneous erections per rat in one hour
average spontaneous erections per rat in one hour ([1]; IV, 1 mg/kg): 1.286±0.421 spontaneous erections per rat in one hour
increase in observed spontaneous erections ([1]; IV): not found to result in a statistically significant increase

CC(=O)N[C@@H](CCCNC(=N)N)C(=O)N[C@H]1CC(=O)NCCCC[C@@H](C(=O)O)NC(=O)[C@H](Cc2c[nH]c3ccccc23)NC(=O)[C@H](CCCNC(=N)N)NC(=O)[C@@H](Cc2ccccc2)NC(=O)[C@H](COCc2ccccc2)NC1=O [Compound 1, Ac-Arg-cyclo(Asp-Ser(Bzl)-D-Phe-Arg-Trp-Lys)-OH]
food intake [3]: reduce food intake
rate of change in body weight [3]: decrease the rate of change in body weight
decrease in food consumption compared to control ([3]; 0.3 mg/kg, 0-4 hour period): statistically significant
decrease in food consumption compared to control ([3]; 1 mg/kg, 0-2 hour period): statistically significant
decrease in food consumption compared to control ([3]; 1 mg/kg, 0-4 hour period): statistically significant
decrease in food consumption compared to control ([3]; 1 mg/kg, 0-20 hour period): statistically significant
Emax ([4]; HEK293, NDP-α-MSH is 100%, read-out: intrinsic activity at MC4-R): 38%
intrinsic activity at MC4-R ([4]; NDP-α-MSH is 100%): 47%
EC50 ([4]; functional studies at MC4-R, average of several studies): 2 nM
functional classification at MC4-R ([4]; in words): partial agonist
Ki [2, 9]: 12 nM
selectivity for MC4-R (binding against MC1-R, MC3-R and MC4-R) [2]: highly selective for MC4-R
average spontaneous erections per rat in one hour ([1]; IV, 1 mg/kg): 1.5±0.378 spontaneous erections per rat in one hour
increase in observed spontaneous erections ([1]; IV): not found to result in a statistically significant increase

B1: cyclic peptide of Compound 3, Ac-Arg-cyclo(Asp-Pro-D-Phe-Arg-Trp-Lys)-NH2 (peptide)
peptide: RDPXRWK
modifications: N-terminal acetyl (Ac); D-Phe at position 4; side-chain lactam cyclo(Asp2-Lys7); C-terminal amide (-NH2)
notes: Synthetic cyclic heptapeptide; prepared as TFA salt; also called No. 3
Ki [5]: 125 nM
EC50 (cAMP accumulation, HEK-293 cells expressing hMC4-R) [6]: 10 nM

Ac-R[Orn][Ser(Bzl)][dF]RWE-OH (lactam 2-7; also: TFA salt) [cyclic peptide of Compound 7, Ac-Arg-cyclo(Orn-Ser(Bzl)-D-Phe-Arg-Trp-Glu)-OH]
EC50 (cAMP accumulation, HEK-293 cells expressing hMC4-R) [7]: 2 nM
intrinsic activity (cAMP accumulation, HEK-293 cells expressing hMC4-R) [7]: 47%

From patent US20090305960A1, “Melanocortin Receptor-Specific Peptides for Treatment of Obesity / 669” (Palatin Technologies, Inc, priority 2008, published 2009)
